Laboratory results taken from the RepoRT retention time repository.

Assay: HILIC, HILICON iHILIC-(P) Classic, HILIC, PEEK, 100 × 2.1 mm, 5 µm, 40 °C, 0.12 mL/min, estimated dead time 1.8 min; A: water + 20 mM ammonium carbonate + 5 µM medronic acid; B: 10% water + 90% acetonitrile + 2 mM ammonium carbonate + 0.5 µM medronic acid; gradient (min/%B) 0/95 18/55 19/20 22/20 22.5/95 24/95 26/95
Settings: stereoisomer not certain

SMILES	LC retention time
O=C(O)CCC(=O)C(=O)O [2-Oxoglutaric acid]	12.7 min
Nc1ncnc2c1ncn2C1OC(COP(=O)(O)OP(=O)(O)O)C(O)C1O (stereo not drawn) [ADP]	12.2 min
Nc1ncnc2c1ncn2C1OC(COP(=O)(O)O)C(O)C1O (stereo not drawn) [AMP]	9.81 min
Nc1ncnc2c1ncn2C1OC(COP(=O)(O)OP(=O)(O)OP(=O)(O)O)C(O)C1O (stereo not drawn) [ATP]	13.7 min
CC(=O)SCCNC(=O)CCNC(=O)C(O)C(C)(C)COP(=O)(O)OP(=O)(O)OCC1OC(n2cnc3c(N)ncnc32)C(O)C1OP(=O)(O)O (stereo not drawn) [Acetyl-CoA]	10 min
Nc1ncnc2c1ncn2C1OC(CO)C(O)C1O (stereo not drawn) [Adenosine]	4.33 min
NC(N)=NCCCC(N)C(=O)O (stereo not drawn) [Arginine]	18.9 min
NC(=O)CC(N)C(=O)O (stereo not drawn) [Asparagine]	9.93 min
O=C(O)CC(O)(CC(=O)O)C(=O)O [Citric acid]	15 min
CC(C)(COP(=O)(O)OP(=O)(O)OCC1OC(n2cnc3c(N)ncnc32)C(O)C1OP(=O)(O)O)C(O)C(=O)NCCC(=O)NCCS (stereo not drawn) [CoenzymeA]	11.4 min
O=C(CO)C(O)C(O)C(O)COP(=O)(O)O (stereo not drawn) [Fructose 6-phosphate]	12.5 min
O=P(O)(O)OCC1OC(O)(COP(=O)(O)O)C(O)C1O (stereo not drawn) [Fructose-1,6-bisphosphate]	15.9 min
O=C(O)C=CC(=O)O [Fumaric Acid]	12 min
NC(CCC(=O)NC(CS)C(=O)NCC(=O)O)C(=O)O (stereo not drawn) [GSH]	9.93 min
NC(CCC(=O)NC(CSSCC(NC(=O)CCC(N)C(=O)O)C(=O)NCC(=O)O)C(=O)NCC(=O)O)C(=O)O (stereo not drawn) [GSSG]	14.8 min
O=P(O)(O)OC1OC(CO)C(O)C(O)C1O (stereo not drawn) [Glucose-1-phosphate]	12.5 min
O=P(O)(O)OCC1OC(O)C(O)C(O)C1O (stereo not drawn) [Glucose-6-phosphate]	13.5 min

SMILES	LC retention time
NC(CCC(=O)O)C(=O)O (stereo not drawn) [Glutamic acid]	9.95 min
NC(=O)CCC(N)C(=O)O (stereo not drawn) [Glutamine]	9.95 min
O=P(O)(O)OCC(O)CO (stereo not drawn) [Glycerol-3-phosphate]	11 min
O=C(O)CC(C(=O)O)C(O)C(=O)O (stereo not drawn) [Isocitric acid]	15.7 min
CC(O)C(=O)O (stereo not drawn) [Lactic Acid]	3.31 min
NCCCCC(N)C(=O)O (stereo not drawn) [Lysine]	18.5 min
O=C(O)CC(O)C(=O)O (stereo not drawn) [Malic Acid]	11.9 min
NC(=O)C1=CN(C2OC(COP(=O)(O)OP(=O)(O)OCC3OC(n4cnc5c(N)ncnc54)C(O)C3O)C(O)C2O)C=CC1 (stereo not drawn) [NADH]	9.3 min
NC(=O)C1=CN(C2OC(COP(=O)(O)OP(=O)(O)OCC3OC(n4cnc5c(N)ncnc54)C(OP(=O)(O)O)C3O)C(O)C2O)C=CC1 (stereo not drawn) [NADPH]	15.5 min
NC(=O)c1ccc[n+](C2OC(COP(=O)(O)OP(=O)(O)OCC3OC(n4cnc5c(N)ncnc54)C(OP(=O)(O)O)C3O)C(O)C2O)c1 (stereo not drawn) [NADP]	14.3 min
NC(=O)c1ccc[n+](C2OC(COP(=O)(O)OP(=O)(O)OCC3OC(n4cnc5c(N)ncnc54)C(O)C3O)C(O)C2O)c1 (stereo not drawn) [NAD]	10.4 min
C=C(OP(=O)(O)O)C(=O)O [PEP]	14.5 min
O=P(O)(O)OCC1OC(O)C(O)C1O (stereo not drawn) [Pentose-phosphate]	11.3 min
O=C(O)CCC(=O)O [Succinic Acid]	10.9 min
O=C(CO)COP(=O)(O)O [Triose phosphate]	11.3 min
CC(=O)NC1C(OP(=O)(O)OP(=O)(O)OCC2OC(n3ccc(=O)[nH]c3=O)C(O)C2O)OC(CO)C(O)C1O (stereo not drawn) [UDP-GlcNAc]	11.7 min
